# Test results as given in patent US8513242B2, “Pyrimidine compounds and methods of making and using same” (Cystic Fibrosis Foundation Therapeutics, Inc., priority 2008, dated 2013).
# How the values were obtained:
# ΔF508 CFTR [1] = molecular target: T1, ΔF508 CFTR (Homo sapiens, UniProt P13569, DEL508-508); test: Dual corrector potentiator assay, potentiator mode: FRT cell Ussing chamber short circuit current, compound added to mucosal solution; format: cell-based; settings: for Potentiator Efficacy: ΔI(forskolin+compound)/ΔI(forskolin+IBMX+genistein)
# T1 construct: expressed in transfected cells; host or cells: FRT epithelial cells (Fischer rat thyroid)
# Experimental: (§1) FRT epithelial cell monolayers were grown on Snapwell filter inserts and optionally treated with a reference corrector N-(2-(5-chloro-2-methoxyphenylamino)-4′-methyl-4,5′-bithiazol-2′-yl)benzamide. The cells were exposed to a compound of the invention for 24 hours prior to the assay. The inserts were transferred to a Navicyte Ussing recording chamber and superfused with a HEPES buffered physiological saline (HB-PS) with composition (in mM): NaCl, 137; KCl, 4.0; CaCl2, 1.8; MgCl2, 1; HEPES, 10; Glucose, 10; pH adjusted to 7.4 with NaOH. The mucosal solution was 10CF-PS (composition in mM: Na-gluconate, 137; KCl, 4; CaCl2, 1.8; MgCl2, 1; HEPES, 10; Mannitol, 10; pH adjusted to 7.4 with N-methyl-D-glucamine) to create a transepithelial Cl ion gradient. A Physiologic Instruments VCC MC6 epithelial voltage clamp (Physiologic Instruments, Inc., San Diego, Calif.) was used to record the short circuit current (ISC).
# (§2) Inserts were voltage clamped at 0 mV to measure the ISC. 10CF-PS solution (5 ml) was added to the mucosal (top) side of the Snapwell filter and HB-PS solution (5 mL) was added to the serosal (bottom) side of the Snapwell filter insert to permeabilize the serosal membrane. Solution additions and replacements in the Navicyte chambers were performed in a way to maintain a hydrostatic pressure gradient from mucosal to serosal sides of the filters by maintaining a solution level greater or equal in the mucosal chamber relative to the serosal chamber during solution changes. After acquisition of at least 10 minutes of baseline current, agonists (final concentrations: 10 μM forskolin, 100 μM 3-isobutyl-1-methylxanthine [IBMX] and 20 μM genistein) and antagonist (final concentration: 10 μM CFTRinh-172) were applied sequentially and cumulatively at 10 minute intervals for forskolin and IBMX, and at 15 minute intervals for genistein and CFTRinh-172, to both serosal and mucosal epithelial surfaces.
# (§3) Agonists were prepared as 200×-1000× concentrated solutions in HP-PS and 10CF-PS. Agonist stocks prepared in HB-PS were added to the serosal surface, while agonist stocks prepared in 10CF-PS were added to the mucosal surface. In potentiator assays, appropriate volumes from 10 mM test compound solution in DMSO were added to the mucosal 10CF-PS solution. Agonists were diluted to the final working concentration in the Navicyte chamber by removal of chamber solution and addition of the concentrated stock solution. Order of solution removal was serosal then mucosal and for solution additions mucosal then serosal in order to maintain a hydrostatic pressure gradient from mucosal to serosal during solution changes. Transepithelial resistance was monitored every 20 s with 10 mV voltage steps.
# (§4) EC50 values are defined as the concentration of compound that gives a >25% increase in whole cell Cl^− conductance (compared to DMSO at 37° C. as a vehicle) at 10 μM. The corrector efficacy was measured as a percentage change in agonist+compound vs. agonist: ΔIcompound(forskolin+IBMX+genistein)/ΔIvehicle(forskolin+IBMX+genistein). The potentiator efficacy was measured as a percentage change in forskolin activity: ΔI(forskolin+compound)/ΔI(forskolin+IBMX+genistein).
# ΔF508 CFTR [2] = molecular target: T1, ΔF508 CFTR; test: Dual corrector potentiator assay, corrector mode: FRT cell Ussing chamber short circuit current after 24 hours exposure to compound; format: cell-based; settings: for EC50: FRT cell monolayers, 24 hours exposure, EC50 defined as concentration giving >25% increase in whole cell Cl− conductance vs DMSO at 37° C.; for Corrector Efficacy: ΔIcompound(forskolin+IBMX+genistein)/ΔIvehicle(forskolin+IBMX+genistein)
# Experimental: as §1, §2, §3, §4
# [3] = ** cells treated with reference corrector N-(2-(5-chloro-2-methoxyphenylamino)-4′-methyl-4,5′-bithiazol-2′-yl)benzamide
# [4] = pretreatment of cells not given
# T1 sequence (P13569 with tags, fused parts or gaps DEL508-508): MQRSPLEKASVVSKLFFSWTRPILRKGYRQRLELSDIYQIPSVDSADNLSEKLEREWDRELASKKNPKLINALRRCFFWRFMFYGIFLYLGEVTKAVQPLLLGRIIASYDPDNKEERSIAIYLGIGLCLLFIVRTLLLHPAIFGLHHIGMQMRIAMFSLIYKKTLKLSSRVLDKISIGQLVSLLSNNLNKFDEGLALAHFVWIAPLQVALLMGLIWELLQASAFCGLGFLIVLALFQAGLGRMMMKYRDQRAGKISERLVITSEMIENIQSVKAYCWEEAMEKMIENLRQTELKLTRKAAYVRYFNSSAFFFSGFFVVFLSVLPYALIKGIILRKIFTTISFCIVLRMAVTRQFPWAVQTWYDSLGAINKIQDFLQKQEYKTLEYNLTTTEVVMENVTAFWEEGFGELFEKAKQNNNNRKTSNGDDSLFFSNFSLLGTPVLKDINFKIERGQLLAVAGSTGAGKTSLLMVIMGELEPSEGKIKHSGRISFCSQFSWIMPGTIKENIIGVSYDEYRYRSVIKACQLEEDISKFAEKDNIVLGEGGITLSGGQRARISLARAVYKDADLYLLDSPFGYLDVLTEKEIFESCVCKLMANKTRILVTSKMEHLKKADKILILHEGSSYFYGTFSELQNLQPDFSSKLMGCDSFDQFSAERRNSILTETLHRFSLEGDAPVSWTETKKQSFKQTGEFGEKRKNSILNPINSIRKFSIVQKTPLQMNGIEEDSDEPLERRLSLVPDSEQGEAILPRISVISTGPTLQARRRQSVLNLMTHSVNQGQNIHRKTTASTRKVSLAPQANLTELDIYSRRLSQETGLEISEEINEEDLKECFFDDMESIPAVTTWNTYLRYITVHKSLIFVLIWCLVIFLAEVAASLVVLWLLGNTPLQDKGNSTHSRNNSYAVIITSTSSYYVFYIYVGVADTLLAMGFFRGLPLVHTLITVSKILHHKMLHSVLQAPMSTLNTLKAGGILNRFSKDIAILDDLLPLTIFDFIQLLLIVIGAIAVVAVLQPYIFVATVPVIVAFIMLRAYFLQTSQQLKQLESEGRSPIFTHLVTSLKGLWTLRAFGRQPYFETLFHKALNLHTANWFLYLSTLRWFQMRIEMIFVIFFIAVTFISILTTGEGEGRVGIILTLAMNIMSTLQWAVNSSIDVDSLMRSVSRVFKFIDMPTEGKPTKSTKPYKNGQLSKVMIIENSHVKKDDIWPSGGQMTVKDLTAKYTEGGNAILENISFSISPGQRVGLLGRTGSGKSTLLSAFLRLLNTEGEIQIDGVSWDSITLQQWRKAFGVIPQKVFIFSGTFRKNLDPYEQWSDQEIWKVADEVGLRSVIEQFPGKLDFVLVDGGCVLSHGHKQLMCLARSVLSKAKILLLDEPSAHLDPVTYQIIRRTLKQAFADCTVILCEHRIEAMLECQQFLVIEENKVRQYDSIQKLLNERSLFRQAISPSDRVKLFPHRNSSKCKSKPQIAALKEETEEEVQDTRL
Structure (SMILES),EC50 (ΔF508 CFTR [1]; * vehicle treated cells) [µM],Potentiator Efficacy (ΔF508 CFTR [1]; * vehicle treated cells),EC50 (ΔF508 CFTR [1]; [3]) [µM],Potentiator Efficacy (ΔF508 CFTR [1]; [3]),EC50 (ΔF508 CFTR [2]) [µM],Corrector Efficacy (ΔF508 CFTR [2]),EC50 (ΔF508 CFTR [1]; [4]) [µM],Potentiator Efficacy (ΔF508 CFTR [1]; [4])
"C[C@H]1CC[C@@H](Nc2ncc(-c3ccc(OC(F)(F)F)cc3)cn2)CC1 [Example 4, N-((1S,4S)-4-Methylcyclohexyl)-5-(4-(trifluoromethoxy)phenyl)pyrimidin-2-amine]",< 3,+++* (+++=>0.6),< 3,+++** (+++=>0.6),< 10,+++ (+++=>3),,
"COc1nc(N[C@H]2CC[C@@H](C)CC2)ncc1-c1ccc(OC(C)C)cc1 [Example 7, 5-(4-Isopropoxyphenyl)-4-methoxy-N-((1S,4S)-4-methylcyclohexyl)pyrimidin-2-amine]",,,< 10,++** (++=0.3-0.6),< 10,+++ (+++=>3),,
"C[C@H]1CC[C@@H](Nc2ncc(-c3ccc(OC(F)F)cc3)cn2)CC1 [Example 19, 5-(4-(difluoromethoxy)phenyl)-N-((1s,4s)-4-methylcyclohexyl)pyrimidin-2-amine]",,,< 3,+++** (+++=>0.6),< 10,+++ (+++=>3),,
"CC(C)Oc1ccc(-c2cnc(N[C@H]3CC[C@@H](C)CC3)nc2)cc1 [Example 23, 5-(4-isopropoxyphenyl)-N-((1s,4s)-4-methylcyclohexyl)pyrimidin-2-amine]",,,< 3,+++** (+++=>0.6),< 10,+++ (+++=>3),,
"COc1ccc(-c2cnc(N[C@H]3CC[C@@H](C)CC3)nc2)cc1 [Example 27, 5-(4-methoxyphenyl)-N-((1s,4s)-4-methylcyclohexyl)pyrimidin-2-amine]",,,< 3,++** (++=0.3-0.6),< 10,+++ (+++=>3),,
"COc1nc(N[C@H]2CC[C@@H](C)CC2)ncc1-c1ccc(OC(F)(F)F)cc1 [Example 58, 4-methoxy-N-((1s,4s)-4-methylcyclohexyl)-5-(4-(trifluoromethoxy)phenyl)pyrimidin-2-amine]",,,< 3,+++** (+++=>0.6),< 10,+++ (+++=>3),,
"COc1nc(N[C@H]2CC[C@@H](C)CC2)ncc1-c1ccc(OC(F)F)cc1 [Example 59, 5-(4-(difluoromethoxy)phenyl)-4-methoxy-N-((1s,4s)-4-methylcyclohexyl)pyrimidin-2-amine]",,,< 3,++** (++=0.3-0.6),< 10,+++ (+++=>3),,
"COc1nc(N[C@H]2CC[C@@H](C)CC2)ncc1-c1ccc(OC(C)C)cc1 [Example 102, 5-(4-isopropoxyphenyl)-4-methoxy-N-((1s,4s)-4-methylcyclohexyl)pyrimidin-2-amine]",,,,,,,< 3,++ (++=0.3-0.6)
"COc1nc(N[C@H]2CC[C@@H](C)CC2)ncc1-c1ccc(OC(F)(F)F)cc1 [Example 103, 4-methoxy-N-((1s,4s)-4-methylcyclohexyl)-5-(4-(trifluoromethoxy)phenyl)pyrimidin-2-amine]",,,,,,,< 3,++ (++=0.3-0.6)
"COc1nc(N[C@H]2CC[C@@H](C)CC2)ncc1-c1ccc(OC(F)F)cc1 [Example 104, 5-(4-(difluoromethoxy)phenyl)-4-methoxy-N-((1s,4s)-4-methylcyclohexyl)pyrimidin-2-amine]",,,,,,,< 3,++ (++=0.3-0.6)
"COc1nc(N[C@H]2CC[C@@H](C)CC2)ncc1-c1ccc(OC(C)C)nc1 [Example 118, 5-(6-isopropoxypyridin-3-yl)-4-methoxy-N-((1s,4s)-4-methylcyclohexyl)pyrimidin-2-amine]",,,,,< 10,+++ (+++=>3),,
"COc1nc(N[C@H]2CC[C@@H](C)CC2)ncc1-c1ccc(N2CCCCC2)nc1 [Example 119, 4-methoxy-N-((1s,4s)-4-methylcyclohexyl)-5-(6-(piperidin-1-yl)pyridin-3-yl)pyrimidin-2-amine]",,,,,< 10,+++ (+++=>3),,
"COc1nc(N[C@H]2CC[C@@H](C)CC2)ncc1-c1ccc(OCC#N)cc1 [Example 125, 2-(4-(4-methoxy-2-((1s,4s)-4-methylcyclohexylamino)pyrimidin-5-yl)phenoxy)acetonitrile]",,,,,> 20,+++ (+++=>3),,
"C[C@H]1CC[C@@H](Nc2ncc(-c3ccc(OCC#N)cc3)c(OCC3CC3)n2)CC1 [Example 133, 2-(4-(4-(cyclopropylmethoxy)-2-((1s,4s)-4-methylcyclohexylamino)pyrimidin-5-yl)phenoxy)acetonitrile]",,,,,> 20,+++ (+++=>3),,
"COc1nc(N[C@H]2CC[C@@H](C)CC2)ncc1-c1ccnc(C#N)c1 [Example 143, 4-(4-methoxy-2-((1s,4s)-4-methylcyclohexylamino)pyrimidin-5-yl)picolinonitrile]",,,,,,,< 3,++ (++=0.3-0.6)
"C[C@H]1CC[C@@H](Nc2ncc(-c3ccc(OCC#N)cc3)c(OC3CCOC3)n2)CC1 (some centres unmarked) [Example 150, 2-(4-(2-((1s,4s)-4-methylcyclohexylamino)-4-(tetrahydrofuran-3-yloxy)pyrimidin-5-yl)phenoxy)acetonitrile]",,,,,> 10,+++ (+++=>3),,
"C[C@H]1CC[C@@H](Nc2ncc(-c3ccc4c(c3)OCCO4)c(O[C@@H]3CCOC3)n2)CC1 [Example 201, 5-(2,3-dihydrobenzo[b][1,4]dioxin-6-yl)-N-((1s,4S)-4-methylcyclohexyl)-4-((R)-tetrahydrofuran-3-yloxy)pyrimidin-2-amine]",,,,,~10,+++ (+++=>3),,
